How the values were obtained:
Assay type in all cases: in vitro ADME
human hepatocytes = experiment: Metabolic stability in human hepatocytes
Protocol: (§1) The in vitro metabolic half-life (t1/2) is calculated using the slope of the log−linear regression from the percentage of the parent compound remaining versus the time relationship (κ). The experimental details are reported in the Supporting Information (Tables S6 and S7).

[1] = Metabolic stability in human hepatocytes; settings: human hepatocytes
Protocol: as §1

mouse hepatocytes = experiment: Metabolic stability in mouse hepatocytes
Protocol: as §1

## CC12CCC(=O)C=C1CCCC2n1cc(-c2ccccc2)nn1 (stereo not drawn) [Compound 45, 4a-Methyl-5-(4-phenyl-1H-1,2,3-triazol-1-yl)-4,4a,5,6,7,8-hexahydronaphthalen-2(3H)-one]
Human hepatocytes; human boiled hepatocytes, 0 min
  Remaining Percentage (%): 100.00%
Human hepatocytes; human boiled hepatocytes, 15 min
  Remaining Percentage (%): 105.47%
Human hepatocytes; human boiled hepatocytes, 30 min
  Remaining Percentage (%): 106.55%
Human hepatocytes; human boiled hepatocytes, 60 min
  Remaining Percentage (%): 108.22%
Human hepatocytes; human boiled hepatocytes, 90 min
  Remaining Percentage (%): 105.29%
Human hepatocytes; human boiled hepatocytes, 120 min
  Remaining Percentage (%): 107.99%
Human hepatocytes; human hepatocytes
  Hepatic Extraction Ratio (E): 0.82
  Predicted hepatic CL: 16.89 mL/min/kg
Human hepatocytes; human hepatocytes, 0 min
  Remaining Percentage (%): 100.00%
Human hepatocytes; human hepatocytes, 15 min
  Remaining Percentage (%): 83.47%
Human hepatocytes; human hepatocytes, 30 min
  Remaining Percentage (%): 64.22%
Human hepatocytes; human hepatocytes, 60 min
  Remaining Percentage (%): 39.26%
Human hepatocytes; human hepatocytes, 90 min
  Remaining Percentage (%): 22.24%
Human hepatocytes; human hepatocytes, 120 min
  Remaining Percentage (%): 11.51%
Human hepatocytes; human, 60 min
  Metabolic Stability in Hepatocytes (60 min), compound remaining: 39%
[1]; read-out: In vitro Clint
  hepatocyte CLint at 1 μM: 36 µL/min/1e6 cells
[1]; read-out: Scale-up Clint
  CLint scaled at 1 µM: 91.7 mL/min/kg
[1]; human, hepatocytes, read-out: In vitro T1/2
  half-life at 1 µM: 38.5 min
Mouse hepatocytes; mouse boiled hepatocytes, 0 min
  Remaining Percentage (%): 100.00%
Mouse hepatocytes; mouse boiled hepatocytes, 15 min
  Remaining Percentage (%): 104.93%
Mouse hepatocytes; mouse boiled hepatocytes, 30 min
  Remaining Percentage (%): 101.77%
Mouse hepatocytes; mouse boiled hepatocytes, 60 min
  Remaining Percentage (%): 101.78%
Mouse hepatocytes; mouse boiled hepatocytes, 90 min
  Remaining Percentage (%): 101.42%
Mouse hepatocytes; mouse boiled hepatocytes, 120 min
  Remaining Percentage (%): 100.86%
Mouse hepatocytes; mouse hepatocytes
  Hepatic Extraction Ratio (E): 0.91
  Predicted hepatic CL: 81.91 mL/min/kg
Mouse hepatocytes; mouse hepatocytes, 0 min
  Remaining Percentage (%): 100.00%
Mouse hepatocytes; mouse hepatocytes, 15 min
  Remaining Percentage (%): 54.16%
Mouse hepatocytes; mouse hepatocytes, 30 min
  Remaining Percentage (%): 31.17%
Mouse hepatocytes; mouse hepatocytes, 60 min
  Remaining Percentage (%): 10.30%
Mouse hepatocytes; mouse hepatocytes, 90 min
  Remaining Percentage (%): 3.01%
Mouse hepatocytes; mouse hepatocytes, 120 min
  Remaining Percentage (%): 0.80%
Mouse hepatocytes; mouse, 60 min
  Metabolic Stability in Hepatocytes (60 min), compound remaining: 10%

Source: publication PMC12192727, “Strategies to Develop Na,K-ATPase-α4 Inhibitors as Male Contraceptives” (International Journal of Molecular Sciences, 2025)
